According to patent US6413967B1, “Inhibition of novel calcium entry pathway in electrically non-excitable cells acting as an anti-proliferative therapy” (The University of Virginia Patents Foundation, priority 1995, dated 2002):
pIC50: −log10 of the molar value.

Tests used:
[1] = tested on: MDA-468 human breast cancer cells; assay: MDA-468 cell proliferation, tetrazolium dye; format: cell-based; settings: human breast cancer cell proliferation, 48 hours
Procedure: The effect of various drugs on the proliferation of Jurkat T cells, MDA-468 human breast cancer cells and PC3 human prostate cancer cells was determined by incubating the cells with the indicated concentrations of drug for 48 hours. The number of viable cells remaining at the end of the incubation period was evaluated using the procedure outlined in Example 4.
Cells are plated in triplicate in a 96-well flat-bottomed plate (Jurkat: 5e4 cells/well in RPMI-1640 plus 5% fbs; MDA468: 2.5e4 per well in DMEM plus 5% fbs and 11 μg/ml insulin) in the absence (control) or presence of drug at 3, 10, 30, and 100 μM. An additional control of 100 μM drug in RPMI-1640 plus 5% fbs or DMEM plus 5% fbs and 11 μg/Ml insulin with no cells is included with each run to control for possible drug interactions with the dye. The plate is then placed in a 5% CO2 37° C. incubator for 44 to 48 hours. 20 μl of dye solution containing a tetrazolium dye (3-(4,5-dimethylthiazol-2-yl)-5-(3-carboxymethoxyphenyl)-2-(4-sulfophenyl)-2H-tetrazolium, Owen's reagent) plus coupling reagent (phenazine methosulfate) is added to each well, the plate is returned to the incubator, and the absorbance at 490 nm is read using an ELISA plate reader 3 to 4 h (Jurkat cells) or 2 to 3 h (MDA-468 cells) later. All data are presented as percent of control (no drug addition). With this protocol, it is possible to determine the effect of 5 drugs at 4 concentrations in a single 96-well plate as outlined below: […]

[2] = tested on: IL-2 production by Jurkat cells; assay: interleukin-2 production with CT-EV bioassay; format: cell-based, human
Procedure: Jurkat cells were suspended at a concentration of 2×10^6 cells/ml in serum-free RPMI-1640 containing 100 U/ml penicillin and 100 μg/ml streptomycin. Cells were treated for 15 min with the appropriate compound to be tested prior to stimulation with 1 μg/ml PHA plus 10 nM PDB (calcium-independent) or with PHA alone (calcium dependent). The cells were then incubated for 2 h at 37° C. Following the 2 h stimulation period, the cells were washed twice with RPMI-1640 supplemented with 5% FBS with 5 min incubations between washes and were resuspended at 2×10^6 cells/ml. The cell suspensions were placed in wells of 24 well plates and were incubated at 37° C. for 24 h. At the end of the incubation, the suspensions were collected, the cells were pelleted and the supernatant was stored at 4° C. for later assay for IL-2 levels. […] Standard curves were generated by addition of known amounts of recombinant human IL-2 (BioWhittaker) to allow determination of IL-2 content in each sample. Plates were then incubated at 37° C. for 48 h. To determine proliferation of CTEV cells, 1 μCi of [^3H]-Thymidine (6.7 Ci/mmol; New England Nuclear) was added to each well for the final 16 hours of the assay and at 48 h the cells were harvested and incorporated ^3H was counted by liquid scintillation counting.

[3] = tested on: VG Ca^2+ current in Jurkat cells; assay: perforated patch clamp, voltage gated (VG) Ca2+ current; format: cell-based, human; settings: Homo sapiens, 10 μM NDGA
Procedure: All recordings were performed using the perforated patch method (Horn et al, J. Gen. Physiol. (1988) 92:145) of the gigaseal patch clamp technique (Hammil et al, Pflugers Arch (1981) 391:85) with microelectrodes of 5-10 megohm series resistance. In all solutions for voltage clamp, K^+ was replaced with Cs^+ to block outward K^+ currents (Fox et al, J. Physiol. (Lond.) (1987) 392:149). The bath solution contained (in mM): NaCl, 155; CsCl, 4.5; CaCl2, 2; MgCl2, 1; D-glucose, 5; HEPES, 10 (pH 7.4 with NaOH). The pipette solution contained (in mM): CsCl, 55; Cesium methanesulfonate, 70; CaCl2, 1; MgCl2, 7; HEPES, 10 (pH 7.3 with NaOH). Nystatin was made as a stock solution of 6 mg/100 μl DMSO, and 2 μl of the stock was added to 1 ml of the pipette solution for use. Both pipette and bath solutions were 290-300 mOsm. Experiments were performed on cells at room temperature using the Axopatch-1D patch clamp (Axon Instruments, Foster City, Calif.) after correction of junction potentials and leak subtraction. Records were low-pass filtered at 500 Hz, and the data were collected, stored and analyzed using the pClamp software program (Axon Instruments). For the non-voltage gated current traces, data is presented either as the tracing from a chart recorder or from the digital data in which the current was measured at 5 second intervals and plotted as individual points.

[4] = tested on: Ca^2+ entry pathway in Jurkat cells; assay: thapsigargin-stimulated Ca2+ entry measured with Ca2+-sensitive dyes (indo-1, fluo-3); format: cell-based, human
Procedure: Lymphocytes were suspended in culture medium at 37° C. for 1 h in the presence of 1 μM of the Ca^2+ indicator dye indo-1 /AM. Cells were washed twice in buffer A (140 mM NaCl, 3 mM KCl, 1 mM CaCl2, 1 mM MgCl2, 0.1% D-glucose, 1% FBS, 10 mM HEPES, pH 7.4) and were suspended at a final concentration of 1×10^6 cells/ml in buffer A. The excitation wavelength was 340 nm and emission was monitored at 398 nm in an SLM 8000 spectrofluorometer (SLM/Aminco, Urbana, Ill.), with the temperature maintained at 37° C. Data are plotted as relative fluorescence intensity at 398 nm as a measure of [Ca^2+]i. For FIG. 7, indo-1 emission was monitored at 398 nm and 480 nm and [Ca^2+]i was determined as described previously (Gray et al, J. Immunol (1987) 138:63; Haverstick et al, Mol. Biol. Cell (1993) 4:173).
Jurkat cells were loaded with indo-1/AM as described above. The excitation wavelength was 340 nm and emission was measured at 441 nm. The fluorescence of indo-1 at 441 nm is insensitive to changes in [Ca^2+]i (Sage et al, Biochem. J. (1989) 258:923) and is plotted as relative fluorescence intensity.
Because amiloride interferes with the fluorescence of indo-1 (Wacholtz et al, J. Immunol. (1992) 149:1912), fluo-3 was used to monitor [Ca^2+]i in the presence of amiloride. Jurkat cells were suspended in culture medium at 37° C. for 1 h in the presence of 1 μM fluo-3/AM and 1 mM probenecid to decrease dye leakage (DiVirgilio et al, Methods Cell Biol. (1989) 31:453). After two washes in buffer A, cells were suspended at a concentration of 1×10^6 cells/ml in buffer A with 1 mM probenecid and were maintained in a cuvette at 37° C. The excitation wavelength was 506 nm and the emission was monitored at 526 nm. Data are presented sa relative fluorescence intensity at 526 nm.

pIC50 ([4]; Homo sapiens, indo-1, n=10, read-out: IC50 for blockade of thapsigargin-stimulated Ca^2+ entry): 5.30
SMILES: CC(Cc1ccc(O)c(O)c1)C(C)Cc1ccc(O)c(O)c1 (stereo not drawn) [NDGA, 4,4′-(2,3-dimethyl-1,4-butanediyl)bis[1,2-benzenediol]]
MDA PROLIF [1]: ↓
effect on IL-2 secretion, Ca^2+-dependent stimulation [2]: suppressed
effect on IL-2 secretion, stimulus not initially requiring extracellular Ca^2+ [2]: little effect
inhibition at 10 µM [3]: ~70%
effect on thapsigargin-stimulated Ca^2+ entry ([4]; 300 nM thapsigargin, amiloride 100 μM (fluo-3), Ni^2+ 1 mM, NDGA 10 μM (indo-1)): inhibited Ca^2+ entry
